Data from patent US9290537B2, “Method for cross-linking peptides” (UNIVERSITEIT GENT, priority 2010, dated 2016).

Experiments:
streptavidin [1] = molecular target: T1, streptavidin (Streptomyces avidinii, UniProt P22629); conditions: same binding site as the StrepTagII; cited from earlier work
[2] = molecular target: T2, Tyr384Phe-Tyr306Ala variant of the pyrrolysyl-tRNA synthetase of M. mazei (Methanosarcina mazei, UniProt Q8PWY1, Y306A/Y384F); assay: Incorporation of furan amino acid in Yellow Fluorescent Protein in E. coli, mutated synthetase; assay type: cell-based; conditions: for incorporation in YFP by the mutated pyrrolysine tRNA-synthetase: 0, 2, 5 and 10 mM in T7 Express E. coli cultures, YFP fluorescence
T2 construct: expressed in transfected cells
T2 sequence (Q8PWY1 whole entry Y306A/Y384F): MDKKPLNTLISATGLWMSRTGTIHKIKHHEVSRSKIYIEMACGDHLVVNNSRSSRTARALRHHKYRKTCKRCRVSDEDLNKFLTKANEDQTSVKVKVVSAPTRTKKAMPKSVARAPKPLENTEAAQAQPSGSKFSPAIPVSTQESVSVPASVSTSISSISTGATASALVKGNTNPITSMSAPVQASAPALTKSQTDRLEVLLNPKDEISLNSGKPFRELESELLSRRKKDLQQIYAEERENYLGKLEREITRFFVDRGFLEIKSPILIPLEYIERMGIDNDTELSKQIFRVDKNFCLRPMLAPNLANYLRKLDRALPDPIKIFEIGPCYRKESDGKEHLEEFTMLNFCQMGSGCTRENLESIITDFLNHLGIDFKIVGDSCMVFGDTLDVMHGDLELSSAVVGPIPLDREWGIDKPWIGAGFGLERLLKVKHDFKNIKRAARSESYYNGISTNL
Description: (§1) The incorporation of unnatural furan amino acids by the pyrrolysyl-tRNA synthetase and its tRNA-CUA in Yellow Fluorescent Protein (YFP) can be easily evaluated by monitoring its fluorescence with confocal microscopy. Without incorporation of the furan amino acid at the amber codon position a truncated non-fluorescent protein was obtained, therefore the obtained fluorescence intensity paralleled the incorporation efficiency. The incorporation of the furan amino acids was tested with the tRNA-CUA of Methanosarcina mazei (M. mazei) and with the wild type pyrrolysyl-tRNA synthetase of M. mazei and the Tyr384Phe-Tyr306Ala variant of the pyrrolysyl-tRNA synthetase of M. mazei (Yanagisawa et al., Chemistry & Biology, 2008, 15, 1187-1197).
(§2) The furan amino acid of Formula (XId) or the furan amino acid of Formula (XIc) was added in a concentration of 0, 2, 5 and 10 mM to 5 ml cell cultures of T7 Express Competent E. coli (from New England BioLabs) transformed with a pET-Duet-1 plasmid (Novagen) containing the genes for the pyrrolysine tRNA-synthetase, 3 copies of the tRNA-CUA and the mutated YFP, in LB medium with the appropriate antibiotic.

[3] = molecular target: T3, wild type pyrrolysyl-tRNA synthetase and tRNA-CUA of M. mazei (Methanosarcina mazei, UniProt Q8PWY1); assay: Incorporation of furan amino acid in thioredoxinA (TrxA), LCMS and trypsin digest; assay type: cell-based; conditions: 5 mM in 1 l cell culture; trypsin digest and peptide analysis
T3 construct: expressed in transfected cells
T3 sequence (Q8PWY1 whole entry): as the sequence (Q8PWY1 whole entry Y306A/Y384F) above, with A306Y, F384Y counted along it
Description: In addition to YFP, another protein, thioredoxinA (TrxA), was chosen for providing additional proof of incorporation of a furan amino acid in a protein, through mass characterization after purification.
Experiments were performed similar as in Example 12 with wild type pyrrolysyl-tRNA synthetase and tRNA-CUA of M. mazei, with the mutated TrxA and with the furan amino acid of Formula (XIc) in a concentration of 5 mM in a 1 l cell culture. This yielded 170 μg of protein after purification over a Strep column. Accurate mass determination with full protein LCMS analysis (Orbitrap, Thermo Scientific) found a mass of 13039.7 Dalton (the calculated average mass of the furan-modified oxidized thioredoxinA without the starting methionine is 13039.95 Dalton), proving the incorporation of the furan amino acid in the protein and its stability.

[4] = molecular target: T4, wild type pyrrolysyl-tRNA synthetase of M. mazei (Methanosarcina mazei, UniProt Q8PWY1); assay: Incorporation of furan amino acid in Yellow Fluorescent Protein in E. coli, wild type synthetase; assay type: cell-based; conditions: 0, 2, 5 and 10 mM in T7 Express E. coli cultures; YFP fluorescence
T4 construct: expressed in transfected cells
T4 sequence (Q8PWY1 whole entry): as the sequence (Q8PWY1 whole entry Y306A/Y384F) above, with A306Y, F384Y counted along it
Description: as §1, §2

streptavidin [5] = molecular target: T1, streptavidin; assay: Cross-linking free furan-StrepTagII peptides with streptavidin (furan-oxidation, NBS, MALDI-TOF); assay type: binding; conditions: for peptide cross-linking with streptavidin: ten equivalents peptide, 60 min 37° C., one equivalent NBS per peptide, 2 hours 10° C., NaCNBH3
Source text: In order to show the cross-link between peptides, an in vitro model system based on the interaction between the StrepTagII and streptavidin was used. The first available Strep-Tag (AWRHPQFGG; SEQ ID NO: 19) able to bind streptavidin could only be attached to the C-terminus of a protein. By changing the sequence of the Strep-Tag, a StrepTagII was developed that can be both N-terminally and C-terminally modified without losing its affinity for streptavidin. Because the intermolecular interactions between the StrepTagII and streptavidin are well characterized, StrepTagII-streptavidin is an excellent model for testing cross-linking.
The free N-terminal and C-terminal furan-StrepTagII peptides 5.2 and 5.3, obtained as described in Example 1, were used to test cross-linking with streptavidin using the furan-oxidation method.
Ten equivalents of the furan-peptides 5.2 or 5.3 were mixed with streptavidin and incubated during 60 min at 37° C. One equivalent of NBS per equivalent of peptide was added as an activation signal and the reaction mixture was incubated during 2 hours at 10° C. with shaking. […] The cross-link between the N-terminal furan-StrepTagII peptide 5.2 and streptavidin was less explicit than the cross-link between the C-terminal furan-StrepTagII peptide 5.3 and streptavidin. This is however not unexpected since the N-terminus of the furan-StrepTagII peptide 5.2 is located outside of its binding site with streptavidin.

streptavidin [6] = molecular target: T1, streptavidin; assay: Specific inhibition of the cross-link of free furan-StrepTagII peptides with streptavidin by biotin; assay type: binding; conditions: ten equivalents peptide, streptavidin and biotin, 60 min 37° C.; one equivalent NBS, 2 hours 10° C.
Description: In order to test the specificity of the StrepTagII-streptavidin cross-link, the experiment of Example 5 was repeated in the presence of biotin. As mentioned before, biotin binds streptavidin with high affinity and on the same binding site as the StrepTagII and can therefore act as a specific inhibitor of the cross-link.
Ten equivalents of the furan-StrepTagII peptides 5.2 or 5.3, obtained as described in Example 1, were mixed with streptavidin and biotin and incubated during 60 min at 37° C. One equivalent of NBS per equivalent of peptide was added and the reaction was performed during 2 hours at 10° C. with shaking.

T1 sequence (P22629 25-183, species assumed): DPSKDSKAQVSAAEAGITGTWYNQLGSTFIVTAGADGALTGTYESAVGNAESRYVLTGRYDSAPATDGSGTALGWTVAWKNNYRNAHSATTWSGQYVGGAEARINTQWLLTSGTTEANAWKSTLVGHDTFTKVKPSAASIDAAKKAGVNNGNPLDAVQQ

Row | Compound | incorporation in YFP by the mutated pyrrolysine tRNA-synthetase [2] | incorporation in YFP by the wild type synthetase [4] | peptide cross-linking with streptavidin (streptavidin [5]) | other results
1 | O=C(O)CCCC[C@@H]1SC[C@@H]2NC(=O)N[C@@H]21 [biotin] | – | – | – | affinity for streptavidin relative to StrepTagII (streptavidin [1]): much higher affinity
2 | NC(CCCCNC(=O)c1ccco1)C(=O)O (centres unmarked) [furan amino acid of Formula (XIc)] | incorporated both | incorporated in YFP by the wild type synthetase in good yield | – | incorporation in YFP by the mutated synthetase, comparison ([2]; compared with Formula (XId) and with wild type synthetase): better than the incorporation of the furan amino acid of Formula (XId), but in lower yield than with the wild type synthetase; incorporation in TrxA [3]: incorporation of the furan amino acid on the correct position of TrxA
3 | NC(CCCCNC(=O)NCc1ccco1)C(=O)O (centres unmarked) [furan amino acid of Formula (XId)] | incorporated both | did not incorporate | – | –
4 | peptide 5.2: N-terminal furan-StrepTagII peptide with N-terminal (2-furyl)-alanine capped with 2-naphtoic acid (FIG. 8, SEQ ID NO 2) (AWSHPQFEK; N-terminal furylalanine capped with 2-naphthoic acid) | – | – | cross-linking was observed | cross-link with streptavidin compared with peptide 5.3 (streptavidin [5]; same conditions as E1): less explicit
5 | peptide 5.3: C-terminal furan-StrepTagII peptide with C-terminal (2-furyl)-alanine, N-terminally capped with 2-naphtoic acid (FIG. 9, SEQ ID NO 3) (WSHPQFEKA; N-terminal 2-naphthoyl cap; C-terminal 2-furylalanine) | – | – | cross-linking was observed | cross-link with streptavidin in the presence of biotin (streptavidin [6]): no cross-link
